Patent EP4722363A1, “RNAI AGENT FOR INHIBITING ANGPTL3 EXPRESSION AND USE THEREOF” (YUN HO BIO CO., LTD, priority 2023, dated 2024)

Columns and labels:
ANGPTL3 Protein [1] = test: PCH free uptake, inhibition of ANGPTL3, ELISA of supernatant; format: cell-based; conditions: primary cynomolgus monkey hepatocytes, 72 hours
Protocol: PCH cells were resuscitated using 10% FBS InvitroGRO™ HT Medium, and subsequently, the cell density was adjusted to 3×10^5 cells/mL using 10% FBS InvitroGRO™ CP Medium. Then, 10 µL of the compound from the dilution plate was added to the cell culture plate, resulting in final compound concentrations of 25, 5, and 1 nM. The cells were seeded into a 96-well plate at a density of 27,000 cells per well (90 µL/well), with a final culture volume of 100 µL per well. The cells were cultured in a 5% CO2 incubator at 37 °C for 72 hours.
(§1) The supernatant from the PHH and PCH cultures from the previous steps was collected, transferred to a new 96-well V-bottom plate, and centrifuged. Human Angiopoietin-like 3 protein (hANGPTL3 protein; DANL30) ELISA test was performed according to the instructions of HANGPTL 3 protein Kit.
(§2) Data Analysis: Four Parameter Logistic method. This method constructs a standard curve by plotting, with the y-axis as the average absorbance of the standards and the x-axis as the concentration, drawing a best-fit curve through the points on the graph. The OD value of the log concentration of the sample's HANGPTL3 protein is determined against the best-fit line of the log concentration by regression analysis. [formula]
(§3) Sequences with good activity in Table 8 were evaluated for in vitro inhibitory activity against ANGPTL3 Protein in primary human hepatocytes (PHH) and primary cynomolgus monkey hepatocytes (PCH). Table 10. In Vitro Inhibitory Activity of MCPP-siRNAs against ANGPTL3 mRNA in PHH Cell Line

ANGPTL3 Protein [2] = test: PHH free uptake, inhibition of ANGPTL3, ELISA of supernatant; format: cell-based; conditions: primary human hepatocytes, 72 hours
Protocol: PHH cells were thawed and adjusted to a density of 6×10^5 cells/mL. Then, 10 µL of the compound from the dilution plate was added to the cell culture plate, resulting in final compound concentrations of 100, 40, 12.5, 5, and 2 nM. The cells were seeded into a 96-well plate at a density of 54,000 cells per well (90 µL/well), with a final culture volume of 100 µL per well. The cells were cultured in a 5% CO2 incubator at 37°C for 72 hours.
as §1, §2, §3

Row | Substance | Average Inhibition in PCH % (ANGPTL3 Protein [1]; 1nM) | Average Inhibition in PCH % (ANGPTL3 Protein [1]; 5nM) | Average Inhibition in PCH % (ANGPTL3 Protein [1]; 25nM) | IC50 (ANGPTL3 Protein [2])
1 | 2002-034-002: GalNAc-conjugated modified ANGPTL3 siRNA, sense SEQ ID NO 33, antisense SEQ ID NO 13 (sense CAUAGUGAAGCAAUCUAAU; antisense AUUAGAUUGCUUCACUAUGGA; GalNAc conjugated, chemically modified, pattern not given here) [Duplex 2002-034-002] | 45.42% | 60.18% | 63.01% | 1.3 nM
2 | 2002-018-002: GalNAc-conjugated modified ANGPTL3 siRNA, sense SEQ ID NO 34, antisense SEQ ID NO 13 (sense CAUAGUGAAGCAAUCUAAU; antisense AUUAGAUUGCUUCACUAUGGA; GalNAc conjugated, chemically modified, pattern not given here) [Duplex 2002-018-002] |  |  |  | 0.96 nM
3 | 2008-035-001: GalNAc-conjugated modified ANGPTL3 siRNA, sense SEQ ID NO 42, antisense SEQ ID NO 28 (sense GAGAAGAACUACAUAUAAA; antisense UUUAUAUGUAGUUCUUCUCAG; GalNAc conjugated, chemically modified, pattern not given here) [Duplex 2008-035-001] | 46.03% | 63.23% | 68.96% | 2.34 nM
4 | 2008-019-001: GalNAc-conjugated modified ANGPTL3 siRNA, sense SEQ ID NO 41, antisense SEQ ID NO 28 (sense GAGAAGAACUACAUAUAAA; antisense UUUAUAUGUAGUUCUUCUCAG; GalNAc conjugated, chemically modified, pattern not given here) [Duplex 2008-019-001] | 58.78% | 73.01% | 75.51% | 1.61 nM
5 | 2002-050-L96: L96-conjugated comparator siRNA, sense SEQ ID NO 43, antisense SEQ ID NO 18 (sense CAUAGUGAAGCAAUCUAAU; antisense AUUAGAUUGCUUCACUAUGGA; L96 GalNAc conjugate, position not given here, modification pattern not given here) [Duplex 2002-050-L96, reference compound] |  |  |  | 2.6 nM
6 | 2008-018-001: GalNAc-conjugated modified ANGPTL3 siRNA, sense SEQ ID NO 41, antisense SEQ ID NO 27 (sense GAGAAGAACUACAUAUAAA; antisense UUUAUAUGUAGUUCUUCUCAG; GalNAc conjugated, chemically modified, pattern not given here) [Duplex 2008-018-001] | 59.56% | 73.29% | 76.55% | 2.34 nM
7 | ARO-05488-003-NAG37: GalNAc-conjugated comparator ANGPTL3 siRNA, sense SEQ ID NO 44, antisense SEQ ID NO 45 (sense GCUCAACAUAUUUGAUCAGUA; antisense UACUGAUCAAAUAUGUUGAGC; GalNAc (NAG37) conjugate, chemistry not fully specified) [reference compound] | 28.48% | 49.83% | 60.00% | 7.19 nM
8 | 2002-018-001: GalNAc-conjugated modified ANGPTL3 siRNA, sense SEQ ID NO 39, antisense SEQ ID NO 13 (sense CAUAGUGAAGCAAUCUAAU; antisense AUUAGAUUGCUUCACUAUGGA; GalNAc conjugated, chemically modified, pattern not given here) [Duplex 2002-018-001] |  |  |  | 1.9 nM
9 | 2002-033-002: GalNAc-conjugated modified ANGPTL3 siRNA, sense SEQ ID NO 33, antisense SEQ ID NO 12 (sense CAUAGUGAAGCAAUCUAAU; antisense AUUAGAUUGCUUCACUAUGGA; GalNAc conjugated, chemically modified, pattern not given here) [Duplex 2002-033-002] |  |  |  | 0.84 nM
10 | 2008-011-001: GalNAc-conjugated modified ANGPTL3 siRNA, sense SEQ ID NO 40, antisense SEQ ID NO 28 (sense GAGAAGAACUACAUAUAAA; antisense UUUAUAUGUAGUUCUUCUCAG; GalNAc conjugated, chemically modified, pattern not given here) [Duplex 2008-011-001] | 57.51% | 72.91% | 77.81% | 2.6 nM
11 | 2008-011-002: GalNAc-conjugated modified ANGPTL3 siRNA, sense SEQ ID NO 35, antisense SEQ ID NO 28 (sense GAGAAGAACUACAUAUAAA; antisense UUUAUAUGUAGUUCUUCUCAG; GalNAc conjugated, chemically modified, pattern not given here) [Duplex 2008-011-002] | 54.65% | 71.25% | 76.57% | 0.75 nM
12 | 2002-033-001: GalNAc-conjugated modified ANGPTL3 siRNA, sense SEQ ID NO 38, antisense SEQ ID NO 12 (sense CAUAGUGAAGCAAUCUAAU; antisense AUUAGAUUGCUUCACUAUGGA; GalNAc conjugated, chemically modified, pattern not given here) [Duplex 2002-033-001] | 53.11% | 67.45% | 68.80% | 1.08 nM
13 | 2008-010-002: GalNAc-conjugated modified ANGPTL3 siRNA, sense SEQ ID NO 35, antisense SEQ ID NO 27 (sense GAGAAGAACUACAUAUAAA; antisense UUUAUAUGUAGUUCUUCUCAG; GalNAc conjugated, chemically modified, pattern not given here) [Duplex 2008-010-002] |  |  |  | 0.98 nM
14 | 2002-034-001: GalNAc-conjugated modified ANGPTL3 siRNA, sense SEQ ID NO 38, antisense SEQ ID NO 13 (sense CAUAGUGAAGCAAUCUAAU; antisense AUUAGAUUGCUUCACUAUGGA; GalNAc conjugated, chemically modified, pattern not given here) [Duplex 2002-034-001] | 50.50% | 63.43% | 66.66% | 1.38 nM
15 | 2008-035-002: GalNAc-conjugated modified ANGPTL3 siRNA, sense SEQ ID NO 37, antisense SEQ ID NO 28 (sense GAGAAGAACUACAUAUAAA; antisense UUUAUAUGUAGUUCUUCUCAG; GalNAc conjugated, chemically modified, pattern not given here) [Duplex 2008-035-002] |  |  |  | 2.23 nM
16 | 2008-018-002: GalNAc-conjugated modified ANGPTL3 siRNA, sense SEQ ID NO 36, antisense SEQ ID NO 27 (sense GAGAAGAACUACAUAUAAA; antisense UUUAUAUGUAGUUCUUCUCAG; GalNAc conjugated, chemically modified, pattern not given here) [Duplex 2008-018-002] |  |  |  | 0.96 nM
17 | 2008-019-002: GalNAc-conjugated modified ANGPTL3 siRNA, sense SEQ ID NO 36, antisense SEQ ID NO 28 (sense GAGAAGAACUACAUAUAAA; antisense UUUAUAUGUAGUUCUUCUCAG; GalNAc conjugated, chemically modified, pattern not given here) [Duplex 2008-019-002] | 52.37% | 70.28% | 73.74% | 1.11 nM
